Structures can show the parent of a compound that is named as a salt.
Tests used:
[1] = tested on: cell receptors; conditions: effects are reversible; cited from earlier work
[2] = tested on: mice fibroblasts L-929; conditions: effects are reversible; cited from earlier work
[3] = tested on: Viral leukosis Mazurenko LMC-1; experiment: Antitumor effect on grafted hemoblastoses (LMC-1), extension of lifespan; assay type: in vivo, mice and rats; conditions: LMC-1; days 2-6 after grafting; effective dose range per compound, 24 h × 5
[4] = tested on: Lewis lung carcinoma LL; experiment: Antitumor effect on grafted Lewis lung carcinoma LL; assay type: in vivo, mice and rats
[5] = tested on: Hepatoma G-61; experiment: Antitumor effect on grafted hepatoma G-61; assay type: in vivo, mice and rats
[6] = tested on: P-388; experiment: Antitumor effect on grafted hemoblastoses (P-388), extension of lifespan; assay type: in vivo, mice and rats
[7] = tested on: Hepatoma G-22c; experiment: Antitumor effect on grafted hepatoma G-22c; assay type: in vivo, mice and rats; conditions: G-22c; days 2-6; effective dose range per compound, 24 h × 5
[8] = tested on: Hepatoma G-60; experiment: Antitumor effect on grafted hepatoma G-60; assay type: in vivo, mice and rats
[9] = tested on: MOPG-406; experiment: Antitumor effect on grafted hemoblastoses (MOPC-406), extension of lifespan; assay type: in vivo, mice and rats
[10] = tested on: L 1210; experiment: Antitumor effect on grafted hemoblastoses (L 1210), extension of lifespan; assay type: in vivo, mice and rats
[11] = tested on: Large intestine adenocarcinoma AKATOL; experiment: Antitumor effect on grafted large intestine adenocarcinoma AKATOL; assay type: in vivo, mice and rats
[12] = tested on: S-37; experiment: Antitumor effect on grafted solid tumor S-37; assay type: in vivo, mice and rats
[13] = tested on: Ca-755; experiment: Antitumor effect on grafted solid tumor Ca-755; assay type: in vivo, mice and rats
[14] = tested on: Alveolar mammary cancer RMK-1; experiment: Antitumor effect on grafted alveolar mammary cancer RMK-1; assay type: in vivo, mice and rats
[15] = tested on: adrenalectomized rat youngsters; experiment: Lifespan of adrenalectomized rat youngsters (biological test for the glucocorticoidal activity); assay type: in vivo; conditions: 25-days adrenalectomized rats
[16] = tested on: mice; conditions: mouse, in vivo
[17] = in vivo; conditions: mouse
[18] = tested on: La; parameters: species or system mice and rats; conditions: in vivo
[19] = tested on: S-180; parameters: species or system mice and rats; conditions: in vivo
[20] = cited from earlier work

CC1(C)O[C@@H]2C[C@H]3[C@@H]4CCC5=CC(=O)C=C[C@]5(C)[C@@]4(F)[C@@H](O)C[C@]3(C)[C@]2(C(=O)COC(=O)N(CCCl)CCCl)O1 [9αF,11β,16α, 17α,26-tetraoxypregna-1,4-diene-3,20-dione-21-[bis-(2-chloroethyl)carbamate], 16,17-acetonide]
reaction with cell receptors [1]: react with cell receptors | growth of cultures of mice fibroblasts L-929 [2]: inhibit growth of cultures of mice fibroblasts L-929

C[C@]12CCC(=O)C=C1CC[C@@H]1[C@@H]2CC[C@@]2(C)[C@H]1CC[C@]2(O)C(=O)CO [11-Desoxy-17α-hydroxycorticosterone, 11-desoxy-17α-hydroxycorticosterone, reference compound]
Extension of the lifespan of the animals (ELA) [3]: 17% | Maximum tumor growth inhibition ([4]; LL, days 2-6, effective dose range per compound, 24 h × 5): 28% | Maximum tumor growth inhibition ([5]; G-61, days 7-11, effective dose range per compound, 24 h × 5): 37% | Extension of the lifespan of the animals (ELA) ([6]; P-388, days 2-6 after grafting, effective dose range per compound, 24 h × 5): -7% | Maximum tumor growth inhibition [7]: 3% | Maximum tumor growth inhibition ([8]; G-60, days 6-10, effective dose range per compound, 24 h × 5): 38% | Extension of the lifespan of the animals (ELA) ([9]; MOPG-406, days 2-6 after grafting, effective dose range per compound, 24 h × 5): 0% | Extension of the lifespan of the animals (ELA) ([10]; L 1210, days 2-6 after grafting, effective dose range per compound, 24 h × 5): 6% | Maximum tumor growth inhibition ([11]; AKATOL, days 2-6, effective dose range per compound, 24 h × 5, "+" = stimulation of tumor growth): +41% | Maximum tumor growth inhibition ([12]; S-37, days 2-6, effective dose range per compound, 24 h × 5): 29% | Maximum tumor growth inhibition ([13]; Ca-755, days 2-6, effective dose range per compound, 24 h × 5, "+" = stimulation of tumor growth): +105% | Maximum tumor growth inhibition ([14]; RMK-1, days 3-7, effective dose range per compound, 24 h × 5, "+" = stimulation of tumor growth): +4% | extension of lifespan of adrenalectomized rat youngsters [15]: 115%

C[C@]12CCC(=O)C=C1CC[C@@H]1[C@@H]2CC[C@@]2(C)[C@H]1CC[C@]2(O)C(=O)COC(=O)CCCc1ccc(N(CCCl)CCCl)cc1 [11-desoxy-17α-hydroxy-21-[p-di(2-chloroethyl)aminophenylbutyrate] corticosterone]
Extension of the lifespan of the animals (ELA) ([6]; in vivo): 82% | Extension of the lifespan of the animals (ELA) ([9]; in vivo): 70% | toxicity (relative) [16]: even lower toxicity | Extension of the lifespan of the animals (ELA) ([10]; in vivo): 20% | MTD [17]: 350 mg/kg | Extension of the lifespan of the animals (ELA) [18]: 18%

C[C@]12CCC(=O)C=C1CC[C@@H]1[C@@H]2[C@@H](O)C[C@@]2(C)[C@H]1CC[C@]2(O)C(=O)COC(=O)N(CCCl)CCCl [11β,17α,21-trihydroxy-pregnene-4-3,20-dione-21-[bis(2-chloroethyl)carbamate]]
reaction with cell receptors [1]: react with cell receptors | growth of cultures of mice fibroblasts L-929 [2]: inhibit growth of cultures of mice fibroblasts L-929

O=C(O)CCCc1ccc(N(CCCl)CCCl)cc1 [Chlorambucyl, p-di-(2-chloroethyl)aminophenylbutyric acid, reference compound]
MTD [17]: 25 mg/kg

C[C@]12CC[C@@H]3c4ccc(OC(=O)N(CCCl)CCCl)cc4CC[C@H]3[C@@H]1CC[C@@H]2OP(=O)(O)O [Estracyte, estra-1,3,5-(10)treine-3,17β-diol-3N-[bis-(2-chloroethyl)carbamate-17-sodium phosphate, reference compound]
Maximum tumor growth inhibition ([4]; in vivo): 29% | Maximum tumor growth inhibition [19]: +23% | Maximum tumor growth inhibition ([12]; in vivo): 85% | Maximum tumor growth inhibition ([13]; in vivo): +6%

C[C@]12C=CC(=O)C=C1CC[C@@H]1[C@@H]2[C@@H](O)C[C@@]2(C)[C@H]1CC[C@]2(O)C(=O)COC(=O)CCCc1ccc(N(CCCl)CCCl)cc1 [Prednimustine, pregna-1,4-diene-3,20-dione, 11β17,21-trihydroxy-21-[p-di(2-chloroethyl)aminophenylbutyrate]]
hematotoxicity ([20]; in vivo): Hematotoxicity usually limiting administration | side effects ([20]; oncological clinic): associated mainly with hematotoxicity

C[C@]12C=CC(=O)C=C1CC[C@@H]1[C@@H]2[C@@H](O)C[C@@]2(C)[C@H]1CC[C@]2(O)C(=O)CO [Prednisolone, pregnadiene-1,4-triol-11β,17α,21-dione-3,20, reference compound]
Maximum tumor growth inhibition ([4]; in vivo): 30% | Maximum tumor growth inhibition ([5]; in vivo): 44% | Maximum tumor growth inhibition ([11]; in vivo): 67% | Maximum tumor growth inhibition ([12]; in vivo): 44% | Maximum tumor growth inhibition ([13]; in vivo): 70%

NC(Cc1ccc(N(CCCl)CCCl)cc1)C(=O)O (stereo not drawn) [Sarcolysine, β-[p-di(2-chloroethyl)aminophenyl]-α-alanine hydrochloride, reference compound]
Maximum tumor growth inhibition ([4]; in vivo): 58% | Maximum tumor growth inhibition ([5]; in vivo): 87% | Maximum tumor growth inhibition ([8]; in vivo): 90% | Maximum tumor growth inhibition ([11]; in vivo): 56% | Maximum tumor growth inhibition [19]: 76% | Maximum tumor growth inhibition ([12]; in vivo): 95% | Maximum tumor growth inhibition ([13]; in vivo): 83% | Maximum tumor growth inhibition ([14]; in vivo): +86%

Source: US4933332A, “11-desoxy-17-α-hydroxycorticosterone derivatives” (priority 1988, dated 1990)
